Data reported in ChEMBL document CHEMBL2010642, “Trichostatin analogues JBIR-109, JBIR-110, and JBIR-111 from the marine sponge-derived Streptomyces sp. RM72” (J Nat Prod, 2012).

Target: Histone deacetylase 1 (Homo sapiens, UniProt Q13547)
Assay: Inhibition of human HDAC1 after 30 mins by fluorescence assay

Histone deacetylase 1, sequence (Q13547 whole entry): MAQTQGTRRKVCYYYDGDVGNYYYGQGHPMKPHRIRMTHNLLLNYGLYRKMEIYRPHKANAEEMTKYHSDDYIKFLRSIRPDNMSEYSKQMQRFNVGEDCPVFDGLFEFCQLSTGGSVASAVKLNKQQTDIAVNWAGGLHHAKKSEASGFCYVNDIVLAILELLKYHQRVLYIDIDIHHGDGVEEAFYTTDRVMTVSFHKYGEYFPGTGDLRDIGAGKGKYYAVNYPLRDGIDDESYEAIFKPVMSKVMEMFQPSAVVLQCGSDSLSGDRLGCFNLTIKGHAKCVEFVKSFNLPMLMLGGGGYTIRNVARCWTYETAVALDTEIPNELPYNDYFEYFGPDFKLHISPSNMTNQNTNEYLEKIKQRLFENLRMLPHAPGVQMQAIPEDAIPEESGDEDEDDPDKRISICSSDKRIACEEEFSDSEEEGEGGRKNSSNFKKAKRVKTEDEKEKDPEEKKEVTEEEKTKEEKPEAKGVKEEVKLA

Q: For `CC(/C=C/C(=O)NCCS(=O)(=O)O)=C\[C@@H](C)C(=O)c1ccc(N(C)C)cc1`, which IC50 is on record?
A: The IC50 was 74 µM.

Q: `CC(/C=C/C(=O)N[C@](C)(CO)C(=O)O)=C\[C@@H](C)C(=O)c1ccc(N(C)C)cc1` was tested. Which IC50 did it give?
A: Its IC50 is 57 µM.

Q: Which IC50 does the source give for `CC(/C=C/C(=O)N[C@@H](CCC(=O)O)C(=O)O)=C\[C@@H](C)C(=O)c1ccc(N(C)C)cc1` here?
A: The IC50 was 48 µM.

Q: How did the IC50 turn out when `CC(/C=C/C(=O)O)=C\[C@@H](C)C(=O)c1ccc(N(C)C)cc1` [TRICHOSTATIC ACID] was run?
A: The IC50 was 73 µM.
